Experimental data taken from patent US10564167B2, “Method for detecting cells” (FUNDACIÓ INSTITUT DE CIÈNCIES FOTÒNIQUES, priority 2014, dated 2020).

Tests used:
Format in all cases: cell-based
[1] = tested on: human fibroblast nuclei (hFb); assay: STORM super-resolution imaging of H2B nanodomains / nucleosome clutches in TSA-treated human fibroblasts
Description: (§1) Human fibroblasts (hFb) (BJ, Skin Fibroblast, American Type Culture Collection, ATCC® CRL-2522™) were cultured in DMEM supplemented with 10% FBS, 1× Non-essential AA, 1× GlutaMax and 1× penicillin/streptomycin. Human fibroblasts were treated with 300 nM of TSA (TricostatinA, Sigma-Aldrich) solution (TSA-hFbs) in complete growth medium for 24 hours before imaging experiments. Human fibroblasts expressing the Histone H2B-SNAP fusion protein were obtained after drug selection of nucleofected cells with the pSNAP-H2B Plasmid (N91795, New England BioLabs) using the Amaxa Human Dermal Fibroblast Nucleofector Kit (Lonza, VPD-1001).
For the imaging experiments, cells were plated on 8-well Lab-tek 1 coverglass chamber (Nunc) at a seeding density of 20,000-50,000 cells per well, fixed and permeabilized with Methanol-Ethanol (1:1) solution at −20° C. for 6 min or fixed with PFA 4% in PBS for 10 min and then permeabilized with 0.1% v/v Triton X-100 (SIGMA) in PBS for 10 min at room temperature. As the distribution of H2B was independent of the fixation and permeabilization protocols, Methanol-Ethanol (1:1) was preferred to minimize the handling of the sample. […]
For all H2B quantification experiments, primary rabbit polyclonal anti-H2B (ab1790) and the secondary donkey anti-rabbit labeled with Alexa Fluor 405-Alexa Fluor 647 (Invitrogen) pair dyes were used after in vitro characterization using mononucleosome, 12- and 24-nucleosome array labeling.
(§2) STORM imaging was carried out with a commercial STORM microscope system from Nikon Instruments (NSTORM). Laser light at 647 nm was used for exciting Alexa Fluor 647 (Invitrogen) and switching it to the dark state, and laser light at 405 nm was used for reactivating the Alexa Fluor 647 (Invitrogen) fluorescence via an activator dye (Alexa Fluor 405)—facilitated manner. […]

[2] = tested on: H3 acetylation in human fibroblast cells; assay: STORM imaging of H3 acetylation in human fibroblasts before and after TSA; conditions: hFbs, 300 nM TSA 24 hours, STORM images
Description: as §1
(§3) For the imaging experiments, cells were plated on 8-well Lab-tek 1 coverglass chamber (Nunc) at a seeding density of 20,000-50,000 cells per well, fixed and permeabilized with Methanol-Ethanol (1:1) solution at −20° C. for 6 min or fixed with PFA 4% in PBS for 10 min and then permeabilized with 0.1% v/v Triton X-100 (SIGMA) in PBS for 10 min at room temperature. […]
as §2

[3] = tested on: human fibroblast nuclei (hFb); assay: Multi-color STORM imaging of H2B and H1 co-localization in hFbs and TSA-hFbs; conditions: TSA-hFbs (hFbs 61±11%, p=0.028)
Description: as §1, §3, §2

Question: `CC(/C=C/C(=O)NO)=C\[C@@H](C)C(=O)c1ccc(N(C)C)cc1` [TSA, Trichostatin A] was tested. Which “distributions of number of localizations per nanodomain, nanodomain areas and nanodomain nnds vs hFbs” value ([1]; TSA-hFbs compared to hFbs, p<10^-3) did it give?
Answer: shifted to lower values

Question: And the “H2B nanodomain density in the nuclear periphery compared to the nuclear interior (enhancement)” value ([1]; TSA-hFbs, 300 nM TSA 24 hours (untreated hFbs ~25% higher))?
Answer: ~10%

Question: What about the “median number of nucleosomes per clutch” value ([1]; hFbs treated with 300 nM TSA for 24 hours, converted from H2B localizations by in vitro calibration curve (untreated hFbs ~8)) of the same compound?
Answer: ~2 nucleosomes

Question: And the “H3 acetylation after TSA treatment” value [2]?
Answer: large increase in H3 acetylation

Question: And the “percentage of H2B co-localized with H1” value [3]?
Answer: 42±6%
